What was measured:
[1] = system: BC-1 (B-Cell Non-Hodgkin's Lymphoma); assay: Bliss excess, mean over the matrix (fraction); higher = more synergy
Procedure, shortened: (§1)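 Cell lines in DMEM/F12 or RPMI with 10% FBS were plated in 1536-well plates, held 24 hours at 37°C, 5% CO2, then given two-drug dose matrices for 72 hours (DMSO typically 0.2%). Viability was read by CellTiter-Glo 2.0 luminescence and scaled as inhibition from 0 (vehicle wells) to 1 (blank wells). Combination Emax is the second-highest inhibition in the matrix; Bliss excess is observed combination effect minus expected EA + EB − EA·EB, EA and EB being single-agent effects.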

[2] = system: C2BBe1 (Colorectal Carcinoma); assay: as above
Procedure, shortened: as §1

[3] = system: HT-1197 (Bladder Carcinoma); assay: as above
Procedure, shortened: as §1

[4] = system: HT-3 (Cervical Carcinoma); assay: as above
Procedure, shortened: as §1

[5] = system: JJN-3 (Plasma Cell Myeloma); assay: as above
Procedure, shortened: as §1

[6] = system: NCI-H1648 (Lung Adenocarcinoma); assay: as above
Procedure, shortened: as §1

[7] = system: NCI-H2009 (Lung Adenocarcinoma); assay: as above
Procedure, shortened: as §1

[8] = system: SCC90 (Head and Neck Carcinoma); assay: as above
Procedure, shortened: as §1

[9] = system: SK-MEL-24 (Melanoma); assay: as above
Procedure, shortened: as §1

[10] = system: SUP-HD1 (Hodgkin's Lymphoma); assay: as above
Procedure, shortened: as §1

[11] = system: SW1463 (Colorectal Carcinoma); assay: as above
Procedure, shortened: as §1

[12] = system: TOV-21G (Ovarian Carcinoma); assay: as above
Procedure, shortened: as §1

[13] = system: CAL-85-1 (Breast Carcinoma); assay: combination Emax (second highest fraction inhibited in the dose matrix, 72 h); higher = more inhibition; extreme values may be limits of the assay
Procedure, shortened: as §1

[14] = system: KNS-62 (Squamous Cell Lung Carcinoma); assay: as above
Procedure, shortened: as §1

[15] = system: L-363 (Plasma Cell Myeloma); assay: as above
Procedure, shortened: as §1

[16] = system: MRK-nu-1 (Breast Carcinoma); assay: as above
Procedure, shortened: as §1

[17] = system: NCI-H1648 (Lung Adenocarcinoma); assay: as above
Procedure, shortened: as §1

[18] = system: NCI-H1944 (Lung Adenocarcinoma); assay: as above
Procedure, shortened: as §1

[19] = system: NCI-H2023 (Non-Small Cell Lung Carcinoma); assay: as above
Procedure, shortened: as §1

[20] = system: TOV-21G (Ovarian Carcinoma); assay: as above
Procedure, shortened: as §1
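For Bliss excess, mean over the matrix in this document: after 72 h of two-drug dosing.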

| SMILES | Bliss excess [1] | Bliss excess [2] | Bliss excess [3] | Bliss excess [4] | Bliss excess [5] | Bliss excess [6] | Bliss excess [7] | Bliss excess [8] | Bliss excess [9] | Bliss excess [10] | Bliss excess [11] | Bliss excess [12] | combination Emax [13] | combination Emax [14] | combination Emax [15] | combination Emax [16] | combination Emax [17] | combination Emax [18] | combination Emax [19] | combination Emax [20] |
| --- | --- | --- | --- | --- | --- | --- | --- | --- | --- | --- | --- | --- | --- | --- | --- | --- | --- | --- | --- | --- |
| CCN(CCO)CCCOc1ccc2c(Nc3cc(CC(=O)Nc4cccc(F)c4)[nH]n3)ncnc2c1 [AZD2811] + C=CCn1c(=O)c2cnc(Nc3ccc(N4CCN(C)CC4)cc3)nc2n1-c1cccc(C(C)(C)O)n1 [AZD1775] (first compound max 1 µM, partner max 1 µM) | -0.031 | 0.024 | -0.114 | -0.0176 | -0.0233 | -0.0388 | 0.0477 | 0.0258 | -0.0378 | -0.0238 | -0.0023 | 0.0317 | 0.297 | 0.169 | 0.931 | 0.373 | 0.439 | 0.471 | 0.574 | 0.591 |
| CCN(CCO)CCCOc1ccc2c(Nc3cc(CC(=O)Nc4cccc(F)c4)[nH]n3)ncnc2c1 [AZD2811] + C[C@@H]1COCCN1C2=NC(=NC(=C2)C3(CC3)[S@](=N)(=O)C)C4=C5C=CNC5=NC=C4 [AZD6738] (first compound max 1 µM, 7x7, partner max 10 µM) | -0.1 | -0.0362 | -0.0441 | -0.0538 | 0.0338 | -0.0898 | -0.0359 | 0.019 | -0.0914 | 0.0391 | -0.0218 | -0.0548 | 0.481 | 0.417 | 0.807 | 0.732 | 0.633 | 0.733 | 0.818 | 0.56 |
| CCN(CCO)CCCOc1ccc2c(Nc3cc(CC(=O)Nc4cccc(F)c4)[nH]n3)ncnc2c1 [AZD2811] + O=C(c1cc(Cc2n[nH]c(=O)c3ccccc23)ccc1F)N1CCN(C(=O)C2CC2)CC1 [Olaparib] (first compound max 1 µM, 7x7, partner max 10 µM) | -0.0401 | -0.0112 | 0.0045 | 0.008 | 0.0422 | -0.0179 | 0.0113 | 0.0459 | -0.0339 | 0.111 | 0.0014 | 0.0352 | 0.0869 | 0.145 | 0.184 | 0.491 | 0.233 | 0.243 | 0.415 | 0.288 |
| CN(CCO)CC[C@H](CSc1ccccc1)Nc1ccc(S(=O)(=O)NC(=O)c2ccc(N3CCC([C@@H](O)c4ccccc4-c4ccc(Cl)cc4)CC3)cc2)cc1S(=O)(=O)C(F)(F)F [AZD4320] + CN(C)CCCOc1ccc(-c2ccc3ncc4c(c3c2)n(C2CCOCC2)c(=O)n4C)cn1 [AZD0156] (first compound max 1 µM, 7x7, partner max 1 µM) | -0.0228 | -0.0443 | -0.0506 | -0.0251 | 0.0142 | -0.0326 | -0.0424 | 0.0037 | -0.0838 | -0.0754 | -0.06 | -0.0262 | 0.29 | 0.125 | 0.263 | 0.164 | 0.55 | 0.322 | 0.22 | 0.209 |
| COc1nnc2ccc(N3CCC(c4ccc(OCCN5CCN(C)C(=O)[C@H]5C)cc4)CC3)nn12 [AZD5153] + C=CCn1c(=O)c2cnc(Nc3ccc(N4CCN(C)CC4)cc3)nc2n1-c1cccc(C(C)(C)O)n1 [AZD1775] (first compound max 1 µM, partner max 1 µM) | -0.048 | -0.0724 | -0.0045 | -0.0104 | -0.0673 | -0.0816 | -0.0229 | -0.0282 | -0.0421 | -0.114 | -0.101 | -0.0246 | 0.598 | 0.542 | 0.935 | 0.309 | 0.737 | 0.84 | 0.501 | 0.891 |
| COc1nnc2ccc(N3CCC(c4ccc(OCCN5CCN(C)C(=O)[C@H]5C)cc4)CC3)nn12 [AZD5153] + CC1(C)CCC(CN2CCN(c3ccc(C(=O)NS(=O)(=O)c4ccc(NCC5CCOCC5)c([N+](=O)[O-])c4)c(Oc4cnc5[nH]ccc5c4)c3)CC2)=C(c2ccc(Cl)cc2)C1 [Venetoclax] (first compound max 1 µM, 7x7, partner max 1 µM) | -0.0604 | -0.0234 | -0.0708 | -0.0644 | 0.0278 | -0.062 | -0.0432 | 0.0009 | -0.0685 | -0.0316 | -0.058 | -0.0264 | 0.674 | 0.519 | 0.528 | 0.468 | 0.68 | 0.566 | 0.378 | 0.623 |
| COc1nnc2ccc(N3CCC(c4ccc(OCCN5CCN(C)C(=O)[C@H]5C)cc4)CC3)nn12 [AZD5153] + CCN(CCO)CCCOc1ccc2c(Nc3cc(CC(=O)Nc4cccc(F)c4)[nH]n3)ncnc2c1 [AZD2811] (first compound max 1 µM, 7x7, partner max 1 µM) | -0.0313 | -0.0364 | -0.0034 | -0.0644 | 0.0098 | -0.0494 | -0.0155 | -0.0547 | -0.102 | -0.0586 | -0.0452 | -0.0249 | 0.657 | 0.596 | 0.589 | 0.561 | 0.669 | 0.711 | 0.422 | 0.749 |
| COc1nnc2ccc(N3CCC(c4ccc(OCCN5CCN(C)C(=O)[C@H]5C)cc4)CC3)nn12 [AZD5153] + C[C@@H]1COCCN1C2=NC(=NC(=C2)C3(CC3)[S@](=N)(=O)C)C4=C5C=CNC5=NC=C4 [AZD6738] (first compound max 1 µM, 7x7, partner max 10 µM) | -0.0709 | -0.0066 | -0.0082 | 0.0769 | -0.0394 | -0.0572 | 0.081 | 0.0164 | -0.0037 | -0.0281 | -0.074 | -0.0018 | 0.734 | 0.625 | 0.849 | 0.814 | 0.821 | 0.88 | 0.7 | 0.891 |
| COc1nnc2ccc(N3CCC(c4ccc(OCCN5CCN(C)C(=O)[C@H]5C)cc4)CC3)nn12 [AZD5153] + Cc1c2c(nn1C)CSCc1cc(n(C)n1)CSc1cc(c3ccccc3c1)OCCCc1c(C(=O)O)n(C)c3c-2c(Cl)ccc13 [AZD5991] (first compound max 1 µM, 7x7, partner max 1 µM) | -0.0202 | -0.041 | 0.0698 | 0.0362 | -0.0268 | -0.0712 | -0.0271 | 0.0814 | -0.003 | -0.0414 | -0.0631 | -0.0337 | 0.779 | 0.503 | 0.994 | 1 | 0.818 | 0.594 | 0.47 | 0.744 |
| COc1nnc2ccc(N3CCC(c4ccc(OCCN5CCN(C)C(=O)[C@H]5C)cc4)CC3)nn12 [AZD5153] + Cn1cnc2c(F)c(Nc3ccc(Br)cc3Cl)c(C(=O)NOCCO)cc21 [Selumetinib] (first compound max 1 µM, 7x7, partner max 10 µM) | -0.036 | 0.0114 | 0.108 | 0.0276 | -0.0076 | 0.0093 | -0.0123 | 0.098 | -0.0003 | -0.0019 | 0.0243 | -0.02 | 0.687 | 0.647 | 0.709 | 0.306 | 0.88 | 0.717 | 0.316 | 0.775 |
| Cc1c2c(nn1C)CSCc1cc(n(C)n1)CSc1cc(c3ccccc3c1)OCCCc1c(C(=O)O)n(C)c3c-2c(Cl)ccc13 [AZD5991] + C1CN(CCC1(C(=O)N[C@@H](CCO)C2=CC=C(C=C2)Cl)N)C3=NC=NC4=C3C=CN4 [Capivasertib] (first compound max 1 µM, 7x7, partner max 3 µM) | 0.0256 | -0.0214 | -0.0002 | 0.0198 | -0.041 | -0.0326 | -0.0207 | -0.0533 | -0.0196 | -0.0833 | -0.0085 | -0.0249 | 0.145 | 0.31 | 1 | 1 | 0.906 | 0.344 | 0.299 | 0.634 |
| Cc1c2c(nn1C)CSCc1cc(n(C)n1)CSc1cc(c3ccccc3c1)OCCCc1c(C(=O)O)n(C)c3c-2c(Cl)ccc13 [AZD5991] + C=CCn1c(=O)c2cnc(Nc3ccc(N4CCN(C)CC4)cc3)nc2n1-c1cccc(C(C)(C)O)n1 [AZD1775] (first compound max 1 µM, partner max 1 µM) | -0.0314 | 0.0165 | -0.0866 | -0.0335 | -0.0331 | -0.0359 | -0.0051 | -0.0001 | 0.0416 | -0.106 | -0.0158 | -0.0865 | 0.43 | 0.223 | 1 | 1 | 0.796 | 0.737 | 0.603 | 0.732 |
| Cc1c2c(nn1C)CSCc1cc(n(C)n1)CSc1cc(c3ccccc3c1)OCCCc1c(C(=O)O)n(C)c3c-2c(Cl)ccc13 [AZD5991] + CCN(CCO)CCCOc1ccc2c(Nc3cc(CC(=O)Nc4cccc(F)c4)[nH]n3)ncnc2c1 [AZD2811] (first compound max 1 µM, 7x7, partner max 1 µM) | 0.0403 | -0.0093 | -0.0381 | 0.162 | 0.0225 | 0.0051 | 0.071 | 0.081 | 0.0258 | 0.0311 | -0.0905 | 0.0576 | 0.267 | 0.244 | 1 | 1 | 0.748 | 0.35 | 0.333 | 0.4 |
| Cc1c2c(nn1C)CSCc1cc(n(C)n1)CSc1cc(c3ccccc3c1)OCCCc1c(C(=O)O)n(C)c3c-2c(Cl)ccc13 [AZD5991] + CN(C)CCCOc1ccc(-c2ccc3ncc4c(c3c2)n(C2CCOCC2)c(=O)n4C)cn1 [AZD0156] (first compound max 1 µM, 7x7, partner max 1 µM) | 0.0274 | 0.0009 | -0.0357 | 0.0222 | -0.0028 | -0.0433 | -0.0204 | 0.0172 | -0.0328 | -0.122 | -0.0212 | -0.0213 | 0.206 | 0.174 | 1 | 1 | 0.701 | 0.259 | 0.426 | 0.161 |
